Test results taken from PMC5706701, “Development of a homogenous high-throughput assay for inositol hexakisphosphate kinase 1 activity” (PLoS ONE, 2017).
Values joined by “and” are separate entries in the source; they are usually repeats but may differ in a detail not shown here. Equal values may be shown once. Where a name gives a salt, the structure may show the parent alone. Read-outs that look alike come from different tables or passages of the source.

Molecular target: T1, Human IP6K1 (Homo sapiens, UniProt Q92551)
T1 construct: GST (N, cleaved yes); made in house; host or cells: C43 E. coli, pGEX-6P-2
Assay: IP6K1 high-throughput screen of the Sigma LOPAC (ADP-Glo Max, single point);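 further: final compound concentration 10µM in 5% DMSO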
Format: biochemical

[1] = LOPAC single-point screen, ADP-Glo Max raw signal per well
[2] = LOPAC single-point screen, Z-score from raw signal with plate average and StDev
[3] = LOPAC single-point screen, ADP-Glo Max luminescence raw signal per well
[4] = LOPAC single-point screen, Z-score relative to plate average and StDev
[5] = LOPAC single-point screen, Z-score against plate average and StDev
[6] = Sigma LOPAC single-point screen, ADP-Glo Max raw signal per well
[7] = Sigma LOPAC single-point screen, Z-score from plate average and StDev

T1 sequence (Q92551 whole entry): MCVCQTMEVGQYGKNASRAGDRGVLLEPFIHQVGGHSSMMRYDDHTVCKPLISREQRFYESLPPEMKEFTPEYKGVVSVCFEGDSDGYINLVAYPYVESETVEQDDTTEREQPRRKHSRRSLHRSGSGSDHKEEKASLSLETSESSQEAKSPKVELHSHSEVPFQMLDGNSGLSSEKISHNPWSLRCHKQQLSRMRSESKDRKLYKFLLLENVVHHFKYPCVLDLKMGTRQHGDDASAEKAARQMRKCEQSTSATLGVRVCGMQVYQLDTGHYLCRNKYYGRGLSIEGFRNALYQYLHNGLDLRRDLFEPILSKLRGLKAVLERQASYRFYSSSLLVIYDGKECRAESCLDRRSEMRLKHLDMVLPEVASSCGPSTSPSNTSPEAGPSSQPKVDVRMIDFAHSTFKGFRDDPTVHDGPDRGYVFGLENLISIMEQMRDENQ

Compound: O=C(N[C@@H](Cc1ccccc1)C(=O)CCl)OCc1ccccc1 [Z-L-Phe chloromethyl ketone]
- Raw Signal [1]: 56278
- Z-score [2]: -0.288

Compound: CCCCCCCCCCCCCCCC(=O)NCC(COP(=O)([O-])OCC[N+](C)(C)C)OCC (racemic)
- Raw Signal [3]: 63126
- Z-score (LOPAC single-point screen, Z-score from plate average and StDev): 1.616

Compound: N.N.O=C([O-])C1(C(=O)[O-])CCC1.[Pt+2] [Carboplatin]
- Raw Signal [3]: 53949
- Z-score [4]: -0.6982

Compound: CC(CCc1ccccc1)NC(C)C(O)c1ccc(O)cc1 (stereo not drawn) [Nylidrin hydrochloride]
- Raw Signal [1]: 56232
- Z-score [5]: 0.3089

Compound: NC(=O)CN1CCCC1=O [Piracetam]
- Raw Signal [6]: 58233
- Z-score [7]: 0.6451

Compound: C[C@H](Cc1ccc2c(c1)OC(C(=O)[O-])(C(=O)[O-])O2)NC[C@H](O)c1cccc(Cl)c1.[Na+].[Na+] [CL 316,243]
- Raw Signal [1]: 56247
- Z-score [2]: -0.2934

Compound: Clc1ccc(C(c2ccccc2Cl)C(Cl)Cl)cc1 (stereo not drawn)
- Raw Signal [1]: 59387
- Z-score [5]: 0.2596

Compound: NC(=NCc1ccccc1)NC(=O)c1nc(Cl)c(N)nc1N [Benzamil hydrochloride]
- Raw Signal [1]: 59018
- Z-score [5]: 0.1946

Compound: CN(C)CCOC(c1ccccc1)c1ccccc1 [Diphenhydramine hydrochloride]
- Raw Signal [1]: 54459
- Z-score [2]: -0.1438

Compound: CN1CCC(=C2c3ccccc3CC(=O)c3sccc32)CC1 [Ketotifen fumarate]
- Raw Signal [3]: 50782
- Z-score [4]: -0.6068

Compound: Cn1c(=O)c2[nH]c(-c3ccc(S(=O)(=O)O)cc3)nc2n(C)c1=O [8-(p-Sulfophenyl)theophylline]
- Raw Signal [1]: 56907
- Z-score [2]: -0.1772

Compound: CC(C)NCC(O)COc1cccc2[nH]ccc12 (stereo not drawn) [S(-)-Pindolol]
- Raw Signal [3]: 52829 and 52276

Compound: N[C@H](CCCCCP(=O)(O)O)C(=O)O [D(-)-2-Amino-7-phosphonoheptanoic acid]
- Raw Signal [6]: 62778
- Z-score [7]: 0.8568

Compound: CCN(CC)CCCCCCCCOC(=O)c1cc(OC)c(OC)c(OC)c1.Cl [TMB-8 hydrochloride]
- Raw Signal [1]: 59541
- Z-score [5]: 0.2867

Compound: NCCCCCCCCCCN [1,10-Diaminodecane]
- Z-score [2]: -0.1121

Compound: CC(N)=NCc1cccc(CN)c1.Cl.Cl [1400W dihydrochloride]
- Raw Signal [1]: 55005
- Z-score [2]: -0.1979

Compound: Cl.NC1(C(=O)O)CC1
- Raw Signal [6]: 65481
- Z-score [7]: 1.333

Compound: CN(C)CC[C@@H](c1ccc(Cl)cc1)c1ccccn1 [(+)-Chlorpheniramine maleate]
- Raw Signal [1]: 57307
- Z-score [2]: -0.1068

Compound: C[N+](C)(C)CCC(=O)c1cccc2ccccc12.[I-]
- Raw Signal [1]: 55064
- Z-score [5]: 0.1127

Compound: N.N.N.N.N.N.N.N.N.N.N.N.N.N.[Cl-].[Cl-].[Cl-].[Cl-].[Cl-].[Cl-].[O-2].[O-2].[Ru+3].[Ru+3].[Ru+4] [Ruthenium red]
- Raw Signal [3]: 52989
- Z-score [4]: -0.5896

Compound: LY-310,762 hydrochloride
- Raw Signal [1]: 55045
- Z-score [5]: 0.1095

Compound: C=CCN1CC[C@]23CCCC[C@H]2[C@H]1Cc1ccc(O)cc13 [Levallorphan tartrate]
- Raw Signal [1]: 52542
- Z-score [2]: -0.3111

Compound: CCn1cc(C(=O)O)c(=O)c2cc(F)c(N3CCNC(C)C3)c(F)c21 (stereo not drawn) [Lomefloxacin hydrochloride]
- Raw Signal [3]: 49930
- Z-score [4]: -0.75

Compound: CC1(C)CCC(NC(=O)[C@@H](N)CCC(=O)O)CC1 [CR 2249]
- Raw Signal [1]: 52015
- Z-score [2]: -0.3997

Compound: OC[C@H]1O[C@@H](n2cnc3c(N[C@H]4CC5CCC4C5)ncnc32)[C@H](O)[C@@H]1O (stereo partly drawn) [(S)-ENBA]
- Raw Signal [1]: 53537
- Z-score [2]: -0.331

Compound: C[C@H](O)[C@H](O)[C@H]1CNc2nc(N)[nH]c(=O)c2N1.Cl
- Raw Signal [1]: 53766
- Z-score [2]: -0.4386

Compound: Nc1nc2c(nc(Br)n2[C@@H]2O[C@@H]3COP(=O)([O-])O[C@H]3[C@H]2O)c(=O)[nH]1.[Na+] [8-Bromo-cGMP sodium]
- Raw Signal [1]: 55323
- Z-score [2]: -0.4562

Compound: O=C(O)CNC(=O)C(CS)Cc1ccccc1 (racemic) [DL-Thiorphan]
- Raw Signal [1]: 55327
- Z-score [2]: -0.1354

Compound: CCCCNc1cc(C(=O)O)cc(S(N)(=O)=O)c1Oc1ccccc1 [Bumetanide]
- Raw Signal [6]: 62300
- Z-score [7]: 0.7727

Compound: Oc1cccc2c(O)nccc12 [1,5-Isoquinolinediol]
- Raw Signal [1]: 54537
- Z-score [5]: 0.02411

Compound: CCCCC/C=C\C/C=C\C/C=C\C/C=C\CCCC(=O)NCC(=O)O [N-arachidonylglycine]
- Raw Signal [1]: 55672
- Z-score [2]: -0.3947

Compound: CCCCNc1c(C(=O)OCC)c(C)nc2c1cnn2CC [Tracazolate]
- Raw Signal [6]: 59222
- Z-score [7]: 0.6213

Compound: Nc1ccn([C@H]2CC[C@@H](CO)O2)c(=O)n1 [2 ,3 -dideoxycytidine]
- Raw Signal [3]: 50390
- Z-score [4]: -0.9702

Compound: C[C@@]12N[C@@H](Cc3ccccc31)c1ccccc12.O=C(O)/C=C\C(=O)O [(-)-MK-801 hydrogen maleate]
- Raw Signal [6]: 58481
- Z-score [7]: 0.6868

Compound: CN(N=O)c1cc(O)ccc1O [Dephostatin]
- Raw Signal [1]: 55962
- Z-score [5]: 0.1615

Compound: C[N+](C)(C)CCO.[Br-] [Choline bromide]
- Raw Signal: 58990
- Z-score: 0.1897

Compound: NCCCNCCCCNCCCN [Spermine tetrahydrochloride]
- Raw Signal [3]: 52988
- Z-score [4]: -0.5898

Compound: O=C([O-])/C=C/C(O)c1ccc(Cl)cc1.[Na+] (stereo not drawn) [NCS-356]
- Raw Signal [6]: 58969
- Z-score [7]: 0.7688

Compound: Nc1ccc2c3c(cccc13)C(=O)NC2=O [4-Amino-1,8-naphthalimide]
- Raw Signal [3]: 55002
- Z-score [4]: -0.5127

Compound: Ic1ccccc1CNC1C2CCN(CC2)C1C(c1ccccc1)c1ccccc1.O=C(O)C(=O)O [L-703,606 oxalate]
- Raw Signal [1]: 52840
- Z-score [2]: -0.261

Compound: N[C@@H](Cn1oc(=O)[nH]c1=O)C(=O)O [(+)-Quisqualic acid]
- Raw Signal [6]: 59992
- Z-score [7]: 0.7709

Compound: Oc1ccc2c3c1O[C@H]1c4oc5ccccc5c4C[C@@]4(O)[C@@H](C2)N(CC2CC2)CC[C@]314 [Naltriben methanesulfonate]
- Raw Signal [1]: 55337
- Z-score [5]: 0.1585

Compound: CNC(=O)[C@H]1O[C@@H](n2cnc3c(NCc4cccc(I)c4)nc(Cl)nc32)[C@H](O)[C@@H]1O [Chloro-IB-MECA]
- Raw Signal [3]: 50053
- Z-score [4]: -1.039

Compound: COc1c2c(nc3ccccc13)OC(C(C)(O)CO)C2 (stereo not drawn) [Dubinidine]
- Raw Signal [3]: 52835
- Z-score [4]: -0.4736

Compound: COc1ccc(CNC(=O)/C=C/c2ccc3[nH]cc(CCN(C)C)c3c2)cc1 [GR 4661]
- Raw Signal [3]: 54448
- Z-score [4]: -0.6103

Compound: CN1CC[C@]2(CCN3CCc4c(oc5ccccc45)[C@@H]3C2)N(C)C1=O.Cl [MK-912]
- Raw Signal [3]: 51307
- Z-score [4]: -0.5186

Compound: CC(C[N+](C)(C)C)OC(N)=O (stereo not drawn) [Bethanechol chloride]
- Raw Signal [1]: 59240
- Z-score [5]: 0.2337

Compound: N[C@@H](Cc1ccc(N(CCCl)CCCl)cc1)C(=O)O [Melphalan]
- Raw Signal [6]: 56974
- Z-score [7]: 0.4336

Compound: CCCCCCCCCCCCCCCC(=O)OC(CC(=O)O)C[N+](C)(C)C.[Cl-] (racemic) [Palmitoyl-DL-Carnitine chloride]
- Raw Signal [1]: 51772
- Z-score [2]: -0.4405

Compound: NCCc1c[nH]cn1 [Histamine dihydrochloride]
- Raw Signal [3]: 51759
- Z-score [4]: -0.6921

Compound: COc1cc(C=C(C#N)C#N)cc(O)c1O [Tyrphostin AG 34]
- Raw Signal [1]: 55934
- Z-score [5]: -0.01745

Compound: NC(=O)OCC(COC(N)=O)c1ccccc1 [Felbamate]
- Raw Signal [6]: 58283
- Z-score [7]: 0.6328

Compound: COc1cc2nc(N3CCN(C(=O)C4CCCO4)CC3)nc(N)c2cc1OC (stereo not drawn) [Terazosin hydrochloride]
- Raw Signal [1]: 54152
- Z-score [2]: -0.3637

Compound: O=C1NCC2(CCN(CCc3ccccc3)CC2)O1 [Fenspiride hydrochloride]
- Raw Signal [1]: 54758
- Z-score [5]: -0.08307

Compound: CCCN(CCC)C(=O)Cc1c(-c2ccc(Cl)cc2)nc2c(Cl)cc(Cl)cn12 [CB34]
- Raw Signal [6]: 60254
- Z-score [7]: 0.4123

Compound: O=C(O)CN(CCOCCOCCN(CC(=O)O)CC(=O)O)CC(=O)O
- Raw Signal: 55582
- Z-score: 0.08428

Compound: CC(C)NCC(O)COc1ccc(CCOCC2CC2)cc1 (stereo not drawn) [Betaxolol hydrochloride]
- Raw Signal [1]: 59138
- Z-score [5]: 0.2157

Compound: COC(=O)[C@H]1[C@H]2C[C@@H]3c4[nH]c5cc(OC)ccc5c4CCN3C[C@H]2C[C@@H](OC(=O)c2cc(OC)c(OC)c(OC)c2)[C@@H]1OC [Reserpine]
- Raw Signal [1]: 59002
- Z-score [5]: 0.1918

Compound: O=C(O)C1CN(CCCP(=O)(O)O)CCN1 (racemic) [(±)-CPP]
- Raw Signal [6]: 59493
- Z-score [7]: 0.8786

Compound: O=C(O)/C=C\C(=O)O.O=[N+]([O-])c1ccc2nc(N3CCNCC3)ccc2c1 [Quipazine, 6-nitro-, maleate]
- Z-score [2]: -0.2764

Compound: Cl.N[C@@H](CCl)C(=O)O [beta-Chloro-L-alanine hydrochloride]
- Raw Signal [1]: 58972
- Z-score [5]: 0.1865

Compound: CCCCC#Cc1nc(N)c2ncn([C@@H]3O[C@H](C(=O)NCC)[C@@H](O)[C@H]3O)c2n1 [HE-NECA]
- Raw Signal [6]: 57534
- Z-score [7]: 0.4807

Compound: COc1ccccc1N1CCN(CCCNc2cc(=O)n(C)c(=O)n2C)CC1 [Urapidil hydrochloride]
- Raw Signal [1]: 54926
- Z-score [2]: -0.2133

Compound: NCCc1ccc(O)c(O)c1 [Dopamine hydrochloride]
- Raw Signal [3]: 44704
- Z-score [4]: -2.125

Compound: O=S(=O)(c1cccc2cnccc12)N1CCNCC1 [HA-100]
- Raw Signal [6]: 57010
- Z-score [7]: 0.3743

Compound: O=c1onc2n1-c1cc(Br)ccc1OC2 [NS 2028]
- Raw Signal [1]: 54790
- Z-score [5]: 0.06662
